Holding throughout (assay type): cell-based
In test [1] the target is T1, SALL4 recruitment to CRBN (Homo sapiens, UniProt Q96SW2).
T1 construct: Full size proteins were fused for each of the target proteins tested, except in the case of IKZF1 where isoform 7 was used; expressed in transfected cells; host or cells: HEK293T
Kind of test: Recruitment Assay (MAPPIT-like): SALL4 recruitment to CRBN. As to conditions: HEK293T cells; pSEL-SALL4+pMG1-CRBN; luciferase 24 hours after treatment; read-out: EC50_SALL4. As for the experimental part:
(§1) In this experimental set-up, cells were transfected with a construct encoding a CRBN-fusion protein and another one encoding a substrate-fusion protein. Test compound activity was assessed with increasing concentrations of test compounds (dose-response studies) to monitor the ability to promote CRBN-ligand-induced protein interaction.
(§2) Full size proteins were fused for each of the target proteins tested, except in the case of IKZF1 where isoform 7 was used. For the study, the following were used: IKZF1 recruitment: pSEL-CRBN+pMG1-IKZF1(isoform 7); ASS1 recruitment: pSEL-CRBN+pMG1-ASS1. SALL4 recruitment: pSEL-SALL4+pMG1-CRBN. […] Luciferase activity was measured 24 hours after test compound treatment using the Luciferase Assay System kit (PROMEGA, Madison, Wis.) with an Ensight plate reader (PERKIN ELMER LIFE SCIENCES, Waltham, Mass.). Data points depicted fold induction of the average luciferase activity of triplicate samples from EPO+test compound treated cells versus EPO only treated cells. Error bars represent standard deviations. Curves were fit using 4-parameter nonlinear regression in […] PRISM software.

Test [2] deals with IKZF1, ASS1 and SALL4 recruitment to CRBN. Briefly: Recruitment assessment: recruitment of any tested substrate from among IKZF1, ASS1 and SALL4. Particulars: any tested substrate at any tested compound concentration.
Test [3] addresses T2, IKZF1 (isoform 7) recruitment to CRBN (Homo sapiens, UniProt Q96SW2).
T2 construct: Full size proteins were fused for each of the target proteins tested, except in the case of IKZF1 where isoform 7 was used; expressed in transfected cells; host or cells: HEK293T
Briefly: Recruitment Assay (MAPPIT-like): IKZF1 recruitment to CRBN. As to conditions: HEK293T cells; pSEL-CRBN+pMG1-IKZF1(isoform 7); luciferase 24 hours after treatment; read-out: EC50_IKZF1. The protocol:
as §1, §2

Structures are written as SMILES. pEC50: −log10 of the molar value.

T2 sequence (Q96SW2 whole entry, the tested form may be a part, canonical isoform): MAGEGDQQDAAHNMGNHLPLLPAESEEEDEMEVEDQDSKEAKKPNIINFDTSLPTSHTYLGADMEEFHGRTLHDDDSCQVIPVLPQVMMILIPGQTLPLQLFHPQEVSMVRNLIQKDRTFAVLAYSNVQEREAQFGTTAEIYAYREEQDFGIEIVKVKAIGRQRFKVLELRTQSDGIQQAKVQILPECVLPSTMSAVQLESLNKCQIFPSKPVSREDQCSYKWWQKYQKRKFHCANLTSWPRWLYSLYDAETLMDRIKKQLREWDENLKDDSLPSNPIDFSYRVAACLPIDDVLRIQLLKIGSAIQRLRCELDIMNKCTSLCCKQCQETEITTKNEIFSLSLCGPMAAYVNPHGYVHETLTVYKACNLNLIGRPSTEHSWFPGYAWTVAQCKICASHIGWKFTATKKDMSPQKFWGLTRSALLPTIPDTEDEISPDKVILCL
T2 sequence (Q13422 1-477 isoform Q13422-7 partner): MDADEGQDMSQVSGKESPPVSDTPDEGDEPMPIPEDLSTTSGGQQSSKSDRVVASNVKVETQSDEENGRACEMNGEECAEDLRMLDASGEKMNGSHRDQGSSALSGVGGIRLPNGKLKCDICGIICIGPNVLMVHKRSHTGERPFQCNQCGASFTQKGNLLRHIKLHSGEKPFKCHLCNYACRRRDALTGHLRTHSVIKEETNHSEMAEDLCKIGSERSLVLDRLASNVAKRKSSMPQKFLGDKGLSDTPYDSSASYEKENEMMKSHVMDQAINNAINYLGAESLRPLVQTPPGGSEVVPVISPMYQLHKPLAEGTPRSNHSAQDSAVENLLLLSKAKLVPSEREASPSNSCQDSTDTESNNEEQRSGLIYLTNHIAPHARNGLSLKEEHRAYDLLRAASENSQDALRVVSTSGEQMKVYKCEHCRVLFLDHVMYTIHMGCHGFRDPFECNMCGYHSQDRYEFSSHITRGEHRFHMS
T2 sequence (Q16531 whole entry partner, the tested form may be a part, canonical isoform): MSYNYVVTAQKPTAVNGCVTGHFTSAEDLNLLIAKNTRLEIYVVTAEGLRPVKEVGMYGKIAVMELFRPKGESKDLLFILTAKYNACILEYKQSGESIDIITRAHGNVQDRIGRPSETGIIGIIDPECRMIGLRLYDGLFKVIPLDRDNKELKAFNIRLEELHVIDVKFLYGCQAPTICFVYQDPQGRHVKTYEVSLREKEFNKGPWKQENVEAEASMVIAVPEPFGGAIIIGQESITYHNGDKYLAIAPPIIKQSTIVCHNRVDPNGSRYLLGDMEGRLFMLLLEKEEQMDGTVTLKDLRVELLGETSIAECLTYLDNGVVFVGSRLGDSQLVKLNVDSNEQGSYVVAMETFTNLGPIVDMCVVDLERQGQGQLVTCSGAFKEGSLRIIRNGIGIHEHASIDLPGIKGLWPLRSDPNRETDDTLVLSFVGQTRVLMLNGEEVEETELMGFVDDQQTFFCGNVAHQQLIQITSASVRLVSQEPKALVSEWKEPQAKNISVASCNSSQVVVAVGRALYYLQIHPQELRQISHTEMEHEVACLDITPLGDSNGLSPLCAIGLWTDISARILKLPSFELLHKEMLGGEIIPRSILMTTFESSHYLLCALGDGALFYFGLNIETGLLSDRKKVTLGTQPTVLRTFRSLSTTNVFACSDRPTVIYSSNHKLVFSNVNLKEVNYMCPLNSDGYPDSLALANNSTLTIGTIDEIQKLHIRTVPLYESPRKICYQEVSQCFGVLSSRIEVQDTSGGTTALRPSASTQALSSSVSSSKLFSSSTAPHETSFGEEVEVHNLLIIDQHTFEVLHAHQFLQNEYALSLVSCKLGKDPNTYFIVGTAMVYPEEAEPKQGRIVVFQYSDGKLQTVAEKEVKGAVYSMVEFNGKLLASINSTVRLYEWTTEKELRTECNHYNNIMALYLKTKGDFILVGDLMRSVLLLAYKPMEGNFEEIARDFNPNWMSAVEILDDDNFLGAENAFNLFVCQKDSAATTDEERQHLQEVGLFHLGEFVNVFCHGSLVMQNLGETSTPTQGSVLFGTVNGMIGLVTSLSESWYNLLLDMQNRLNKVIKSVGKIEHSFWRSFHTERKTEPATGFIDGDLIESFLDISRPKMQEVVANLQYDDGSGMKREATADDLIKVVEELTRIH
T1 sequence (Q96SW2 whole entry, the tested form may be a part, canonical isoform): as the sequence (Q96SW2 whole entry, the tested form may be a part, canonical isoform) above
T1 sequence (Q9UJQ4 whole entry partner, the tested form may be a part, canonical isoform): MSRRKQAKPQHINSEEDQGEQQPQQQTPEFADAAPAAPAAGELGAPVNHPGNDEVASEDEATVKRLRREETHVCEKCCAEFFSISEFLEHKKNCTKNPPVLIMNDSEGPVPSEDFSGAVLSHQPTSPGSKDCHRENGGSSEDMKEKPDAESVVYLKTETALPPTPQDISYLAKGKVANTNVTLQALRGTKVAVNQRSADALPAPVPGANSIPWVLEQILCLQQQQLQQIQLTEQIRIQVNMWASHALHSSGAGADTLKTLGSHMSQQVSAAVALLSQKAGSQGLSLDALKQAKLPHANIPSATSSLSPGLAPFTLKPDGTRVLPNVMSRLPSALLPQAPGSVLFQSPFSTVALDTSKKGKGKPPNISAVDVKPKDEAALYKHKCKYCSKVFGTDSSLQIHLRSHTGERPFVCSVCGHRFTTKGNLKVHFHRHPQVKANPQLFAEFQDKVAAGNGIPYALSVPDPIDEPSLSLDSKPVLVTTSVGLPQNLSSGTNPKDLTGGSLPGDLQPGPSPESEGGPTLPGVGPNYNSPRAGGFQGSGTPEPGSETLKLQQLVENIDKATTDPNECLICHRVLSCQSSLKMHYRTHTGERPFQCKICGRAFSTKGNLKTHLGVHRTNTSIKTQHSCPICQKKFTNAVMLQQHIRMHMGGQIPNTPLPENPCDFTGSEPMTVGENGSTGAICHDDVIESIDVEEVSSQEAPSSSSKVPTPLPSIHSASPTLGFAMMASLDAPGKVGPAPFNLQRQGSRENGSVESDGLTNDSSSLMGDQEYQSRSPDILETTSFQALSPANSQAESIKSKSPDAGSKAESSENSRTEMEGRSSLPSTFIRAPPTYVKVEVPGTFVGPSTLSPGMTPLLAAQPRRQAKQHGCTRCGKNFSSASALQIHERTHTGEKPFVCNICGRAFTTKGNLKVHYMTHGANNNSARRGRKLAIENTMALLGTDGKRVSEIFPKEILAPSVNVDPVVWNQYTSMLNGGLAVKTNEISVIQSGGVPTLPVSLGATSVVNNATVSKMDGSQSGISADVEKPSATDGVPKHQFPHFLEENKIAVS
T1 sequence (Q16531 whole entry partner, the tested form may be a part, canonical isoform): as the sequence (Q16531 whole entry partner, the tested form may be a part, canonical isoform) above

In the case of `CN(C)C1c2ccccc2C(=O)N1C1CCC(=O)NC1=O` (stereo not shown) [C10981, 3-[1-(dimethylamino)-3-oxo-isoindolin-2-yl]piperidine-2,6-dione], the pEC50 in test [1] was 5.84. In addition, the “Recruitment Assessment” value in test [2] is on record as “TRUE”.
Turning to `O=C1CCC(N2Cc3ccc(NCC(=O)NC4CCOCC4)cc3C2=O)C(=O)N1` (stereo not shown) [C12693, 2-[[2-(2,6-dioxo-3-piperidyl)-3-oxo-isoindolin-5-yl]amino]-N-tetrahydropyran-4-yl-acetamide], the pEC50 in test [1] was 5.58. The “Recruitment Assessment” value in test [2] is reported as “TRUE”.
Taken in the same sequence, the figures for `O=C1CCC(N2Cc3ccc(NCC(=O)NC4CCOC4)cc3C2=O)C(=O)N1` (stereo not shown) [C12694, 2-[[2-(2,6-dioxo-3-piperidyl)-3-oxo-isoindolin-5-yl]amino]-N-tetrahydrofuran-3-yl-acetamide] were 5.46 and “TRUE”.
For the compound `Cc1ccc2nnn(C3CCC(=O)NC3=O)c(=O)c2c1` (stereo not shown) [C16463, 3-(6-methyl-4-oxo-1,2,3-benzotriazin-3-yl)piperidine-2,6-dione], the pEC50 in test [1] was 6.11. In addition, in test [2], the “Recruitment Assessment” value is recorded as “TRUE”.
For `Cc1ccc2c(=O)n(C3CCC(=O)NC3=O)nnc2c1` (stereo not shown) [C17800, 3-(7-methyl-4-oxo-1,2,3-benzotriaan-3-yl)piperidirie-2,6-dione], the pEC50 in test [1] is 6.04. Also, in test [2], the “Recruitment Assessment” value is listed as “TRUE”.
`CS(=O)(=O)Nc1cccc2c1CN(C1CCC(=O)NC1=O)C2=O` (stereo not shown) [C22548, N-[2-(2,6-dioxo-3-piperidyl)-1-oxo-isoindolin-4-yl] methanesulfonamide]: the pEC50 is 6.31 in test [3] and 6.20 in test [1]. For the same compound, the “Recruitment Assessment” value in test [2] is recorded as “TRUE”.
Turning to `COCC(=O)Nc1cccc2c1CN(C1CCC(=O)NC1=O)C2=O` (stereo not shown) [C22564, N-[2-(2,6-dioxo-3-piperidyl)-1-oxo-isoindolin-4-yl]-2-methoxy-acetamide], the pEC50 in test [1] is 6.06. For the same compound, the “Recruitment Assessment” value in test [2] is “TRUE”.
Taken in the same sequence, the figures for `CN(C)CC(=O)Nc1cccc2c1CN(C1CCC(=O)NC1=O)C2=O` (stereo not shown) [C22586, 2-(dimethylamino)-N-[2-(2,6-dioxo-3-piperidyl)-1-oxo-isoindolin-4-yl] acetamide] were 5.94 and “TRUE”.
In the case of `CCOC(=O)Nc1cccc2c1CN(C1CCC(=O)NC1=O)C2=O` (stereo not shown) [C22622, ethyl N-[2-(2,6-dioxo-3-piperidyl)-1-oxo-isoindolin-4-yl]carbamate], in test [1], the pEC50 was 6.92. In addition, the “Recruitment Assessment” value in test [2] is on record as “TRUE”.
On to `O=C1CCC(N2Cc3cccc(F)c3C2=O)C(=O)N1` (stereo not shown) [C23066, 3-(7-fluoro-1-oxo-isoindolin-2-yl)piperidine-2,6-dione], for which, in test [1], the pEC50 is 7.05. Further, the “Recruitment Assessment” value in test [2] was “TRUE”.
With `Cc1ccc2c(c1)C(=O)N(C1CCC(=O)NC1=O)C2` (stereo not shown) [C28620, 3-(6-methyl-1-oxo-isoindolin-2-yl)piperidine-2,6-dione], the pEC50 in test [1] was 6.57. Moreover, the “Recruitment Assessment” value in test [2] is reported as “TRUE”.
For `CC(=O)Nc1ccc2c(c1)CN(C1CCC(=O)NC1=O)C2=O` (stereo not shown) [C29361, N-[2-(2,6-dioxo-3-piperidyl)-1-oxo-isoindolin-5-yl]acetamide], the pEC50 in test [1] was 6.73. Further, the “Recruitment Assessment” value in test [2] was “TRUE”.
On to `O=C1CCCC(N2Cc3c(cccc3[N+](=O)[O-])C2=O)C(=O)N1` (stereo not shown) [C29737, 3-(4-nitro-1-oxo-isoindolin-2-yl)azepane-2,7-dione], for which, in test [3], the pEC50 is 5.85. Moreover, the “Recruitment Assessment” value in test [2] was “TRUE”.
As to `CC(=O)NC1c2ccccc2C(=O)N1C1CCC(=O)NC1=O` (stereo not shown) [C33779, N-[2-(2,6-dioxo-3-piperidyl)-3-oxo-isoindolin-1-yl]acetamide], in test [1], the pEC50 was 5.52. Besides, in test [2], the “Recruitment Assessment” value is recorded as “TRUE”.
Turning to `CC(=O)NCCNc1ccc2c(c1)CN(C1CCC(=O)NC1=O)C2=O` (stereo not shown) [C35745, N-[2-[[2-(2,6-dioxo-3-piperidyl)-1-oxo-isoindolin-5-yl]amino]ethyl]acetamide], in test [1], the pEC50 is 5.58. Further, the “Recruitment Assessment” value in test [2] is “TRUE”.
Taken in the same sequence, the figures for `CCOC(=O)NCCNc1ccc2c(c1)CN(C1CCC(=O)NC1=O)C2=O` (stereo not shown) [C35754, ethyl N-[2-[[2-(2,6-dioxo-3-piperidyl)-1-oxo-isoindolin-5-yl]amino]ethyl]carbamate] were 6.56 and “TRUE”.
For the compound `NC(=O)c1cccc(NC(=O)CNc2ccc3c(c2)CN(C2CCC(=O)NC2=O)C3=O)c1` (stereo not shown) [C35811, 3-[[2-[[2-(2,6-dioxo-3-piperidyl)-1-oxo-isoindolin-5-yl]amino]acetyl]amino]benzamide], in test [1], the pEC50 is 6.19. Moreover, in test [2], the “Recruitment Assessment” value is recorded as “TRUE”.
For `Nc1cccc2c1CN(C1CC(=O)NC1=O)C2=O` (stereo not shown) [C47930, 3-(4-amino-1-oxo-isoindolin-2-yl)pyrrolidine-2,5-dione], the pEC50 in test [3] is 6.11. In test [2], the “Recruitment Assessment” value is “TRUE”.
`O=C1CCC(N2Cc3ncccc3C2=O)C(=O)N1` (stereo not shown) [C47959, 3-(5-oxo-7H-pyrrolo[3,4-b]pyridin-6-yl)piperidine-2,6-dione]: in test [1], the pEC50 was 6.36. In test [2], the “Recruitment Assessment” value was “TRUE”.
As for `O=C(O)CNc1ccc2c(c1)CN(C1CCC(=O)NC1=O)C2=O` (stereo not shown) [C47995, 2-[[2-(2,6-dioxo-3-piperidyl)-1-oxo-isoindolin-5-yl]amino]acetic acid], the pEC50 in test [1] was 6.29. Also, the “Recruitment Assessment” value in test [2] is recorded as “TRUE”.
Turning to `O=C(O)CNc1cccc2c1C(=O)N(C1CCC(=O)NC1=O)C2` (stereo not shown) [C47998, 2-[[2-(2,6-dioxo-3-piperidyl)-3-oxo-isoindolin-4-yl]amino]acetic acid], in test [1], the pEC50 is 5.66. In addition, in test [2], the “Recruitment Assessment” value is recorded as “TRUE”.
Regarding `N#Cc1cccc2c1CN(C1CCC(=O)NC1=O)C2=O` (stereo not shown) [C48003, 2-(2,6-dioxo-3-piperidyl)-1-oxo-isoindoline-4-carbonitrile], in test [1], the pEC50 is 6.24. Further, in test [2], the “Recruitment Assessment” value is listed as “TRUE”.
Taken in the same sequence, the figures for `N#Cc1ccc2c(c1)CN(C1CCC(=O)NC1=O)C2=O` (stereo not shown) [C48005, 2-(2,6-dioxo-3-piperidyl)-1-oxo-isoindoline-5-carbonitrile] were 6.23 and “TRUE”.
Regarding `O=C1CCC(N2Cc3cc(-c4ccccc4)ccc3C2=O)C(=O)N1` (stereo not shown) [C48016, 3-(1-oxo-5-phenyl-isoindolin-2-yl)piperidine-2,6-dione], the pEC50 in test [1] is 6.91. Further, in test [2], the “Recruitment Assessment” value is “TRUE”.
Consider `O=C1CCC(N2Cc3ccc(-c4ccccc4)cc3C2=O)C(=O)N1` (stereo not shown) [C48018, 3-(1-oxo-6-phenyl-isoindolin-2-yl)piperidine-2,6-dione], for which the pEC50 in test [1] was 6.40. For the same compound, the “Recruitment Assessment” value in test [2] is reported as “TRUE”.
Regarding `O=C1CCC(N2C(=O)C3=C(C2=O)c2ccccc2CC3)C(=O)N1` (stereo not shown) [C64340, 2-(2,6-dioxo-3-piperidyl)-4,5-dihydrobenzo[e]isoindole-1,3-dione], in test [1], the pEC50 was 5.83. Further, the “Recruitment Assessment” value in test [2] was “TRUE”.
`O=C1CCC(N2Cc3cc4c(cc3C2=O)OCO4)C(=O)N1` (stereo not shown) [C68126, 3-(7-oxo-5H-[1,3]dioxolo[4,5-f]isoindol-6-yl)piperidine-2,6-dione]: the pEC50 in test [1] is 6.50. Further, the “Recruitment Assessment” value in test [2] is given as “TRUE”.
Take `O=C1CCC(N2Cc3cc(Nc4ncc5[nH]cnc5n4)ccc3C2=O)C(=O)N1` (stereo not shown) [C80376, 3-[1-oxo-5-(7H-purin-2-ylamino)isoindolin-2-yl]piperidine-2,6-dione]: the pEC50 in test [1] was 6.25. The “Recruitment Assessment” value in test [2] is given as “TRUE”.
`O=C1CCC(N2Cc3ccc(Nc4ncc5c(n4)COC5)cc3C2=O)C(=O)N1` (stereo not shown) [C80391, 3-[6-(5,7-dihydrofuro[3,4-d]pyrimidin-2-ylamino)-1-oxo-isoindolin-2-yl]piperidine-2,6-dione]: the pEC50 in test [1] is 6.82. Moreover, the “Recruitment Assessment” value in test [2] is given as “TRUE”.
Turning to `O=C1CCC(N2Cc3ccc(NC(=O)c4cnc5nccn5c4)cc3C2=O)C(=O)N1` (stereo not shown) [C80396, N-[2-(2,6-dioxo-3-piperidyl)-3-oxo-isoindolin-5-yl]imidazo[1,2-a] pyrimidine-6-carboxamide], the pEC50 in test [1] is 5.86. Also, the “Recruitment Assessment” value in test [2] is reported as “TRUE”.
Take `CC(Nc1ccc2c(c1)C(=O)N(C1CCC(=O)NC1=O)C2)C(=O)O` (stereo not shown) [C84970, 2-[[2-(2,6-dioxo-3-piperidyl)-3-oxo-isoindolin-5-yl]amino] propanoic acid]: in test [1], the pEC50 was 6.00. The “Recruitment Assessment” value in test [2] is reported as “TRUE”.
On to `O=C1CCC(N2Cc3ccccc3C2)C(=O)N1` (stereo not shown) [C87699, 3-isoindolin-2-ylpiperidine-2.6-dione], for which the pEC50 in test [1] was 5.32. In addition, in test [2], the “Recruitment Assessment” value was “TRUE”.
In the case of `O=C1CCC(N2C(=O)c3ccccc3C2O)C(=O)N1` (stereo not shown) [C89940, 3-(1-hydroxy-3-oxo-isoindolin-2-yl)piperidine-2,6-dione], the pEC50 in test [1] was 6.36. Moreover, in test [2], the “Recruitment Assessment” value was “TRUE”.

Source of the values: patent US20230111853A1, “COMPOUNDS MODULATING PROTEIN RECRUITMENT AND/OR DEGRADATION” (Orionis Biosciences, Inc., priority 2019, published 2023).
